The record followed here is US9090599B2, “Heteroarylmethyl amides” (Hoffman-La Roche Inc., priority 2010, dated 2015).

Experiment [1] relates to ABCA1 protein. Nature of the experiment: Detection of upregulation of ABCA1 protein in THP-1 macrophage cells (ApoA-I binding, high content imaging). The format is cell-based. To be noted: 24 hrs with compound, AlexaFluor 647 ApoA-I binding, read-out: ABCA1 protein increasing efficacy EC50. As for the experimental part:
The ability of compounds of the invention to increase the level of ABCA1 protein is determined in replicate cultures of THP-1 macrophage cells in 96-well microplates. Cells are plated at an initial density of 100,000 cells/well in 100 μl medium and differentiated to adherent macrophages with the addition of PMA (100 nM) for 68 hrs in 10% fetal bovine serum, 3 μl/L of b-mercaptoethanol, RPMI-1640 medium. Then, cells are incubated with RPMI-1640 medium containing 1% FCS, 25 μg/ml acetylated LDL, for 24 hours at 37°. Following incubation with acetylated LDL, cells are washed twice with 50 μl PBS and incubated with 100 μl of RPMI-1640 medium containing the compound of interest solubilized in DMSO for an additional 24 hrs. The final DMSO concentration in presence of cells is maintained at 0.5%. ApoA-I binding assay using High Content Image Analysis is initiated by replacing with fresh medium, RPMI without Phenol Red, 0.2% BSA containing AlexaFluor®647 labeled ApoA-I for 2 h/37° C./5% CO2. Then, cells are fixed with 4% Formaldehyde in PBS (15 min, RT). Following Nuclei are stained with Hoechst solution (3 μM PBS) and Cytoplasm with Cell Mask Blue (2 μg/ml PBS), 15 min, RT. Finally the stained cells are fixed with a second round of formaldehyde treatment. Fixed stained cells are washed and kept in PBS at 4° C. and can be read immediately until one month after preparation.
The Alexa Fluor 647-labeled Apolipoprotein A-I (20 nM) was prepared as follows: Human recombinant Apolipoprotein A-I (ApoA-I) was exchanged to a buffer of 0.02 M NaHCO3 at pH 8.2 on an NAP desalting column (GE Healthcare) and brought to a concentration to 40 μM (1.13 mg/ml) by adjustment with the same buffer. The ApoA-I was fluorescently labeled by incubation with Alexa Fluor carboxylic acid succimidyl ester. (Alexa Fluor 647, Invitrogen A-20006) at a 2:1 molar ratio (Alexa to ApoA-I) for 1 h under shaking at RT. The remaining unconjugated label was removed by buffer exchange to 0.02M NaHCO3 at pH 8.2.
Imaging and data collection were performed on an OPERA confocal microplate imaging reader using a 20× water immersion objective and UV360 or 405 laser to identify the cell nuclei and a 635 laser to identify the fluorescent ApoA-I. Eight fields of view are captured per well. Image capture and analysis was performed with the Acapella software. Background fluorescence detected in control wells without ApoA-I was subtracted.
Using XLfit3 program (ID Business Solutions Ltd. UK), the model 205 for Dose Response One Site is used to calculate the EC50 values. […] Preferably, the compounds of the present invention have EC50 values in a range of 0.1 μM to 3 μM.

For experiment [2], the target named is T1, human CB1 receptor (Homo sapiens, UniProt P21554).
T1 construct: expressed in transfected cells; host or cells: human embryonic kidney (HEK) cells, Semliki Forest Virus system, membrane preparations
Nature of the experiment: CB1 receptor affinity, [3H]-CP-55,940 displacement, HEK cell membranes. The format is binding. The note with it: read-out: CB1 receptor affinity [% inhibition @ 10 μM]. Put shortly: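 Membranes from HEK cells transiently expressing human CB1 (Semliki Forest Virus system) incubated with [3H]-CP-55,940 with or without test compound. Bound and free ligand separated by glass-fibre filtration and bound radioactivity counted by scintillation. Compounds tested at 10 μM, values reported as % inhibition of radioligand binding.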

In experiment [3] the target is T2, human CB2 receptor (Homo sapiens, UniProt P34972).
T2 construct: expressed in transfected cells; host or cells: human embryonic kidney (HEK) cells, Semliki Forest Virus system, membrane preparations
The experiment in a line: CB2 receptor affinity, [3H]-CP-55,940 displacement, HEK cell membranes. The format is binding. To be noted: 10 μM compound, radioligand [3H]-CP-55,940. The essentials:
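Membranes from HEK cells transiently expressing human CB2 (Semliki Forest Virus) incubated with [3H]-CP-55,940 ± compound at 10 μM. Bound ligand separated by glass-fibre filtration and counted by scintillation; reported as % inhibition at 10 μM.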

Setting [4] is: 10 μM compound, radioligand [3H]-CP-55,940.

The EC50 is the concentration at which the effect is half-maximal. By inhibition is commonly meant the drop in the measured response relative to a control, in per cent.

Like-named read-outs stand apart in the source and are kept apart here.

T1 sequence (P21554 whole entry): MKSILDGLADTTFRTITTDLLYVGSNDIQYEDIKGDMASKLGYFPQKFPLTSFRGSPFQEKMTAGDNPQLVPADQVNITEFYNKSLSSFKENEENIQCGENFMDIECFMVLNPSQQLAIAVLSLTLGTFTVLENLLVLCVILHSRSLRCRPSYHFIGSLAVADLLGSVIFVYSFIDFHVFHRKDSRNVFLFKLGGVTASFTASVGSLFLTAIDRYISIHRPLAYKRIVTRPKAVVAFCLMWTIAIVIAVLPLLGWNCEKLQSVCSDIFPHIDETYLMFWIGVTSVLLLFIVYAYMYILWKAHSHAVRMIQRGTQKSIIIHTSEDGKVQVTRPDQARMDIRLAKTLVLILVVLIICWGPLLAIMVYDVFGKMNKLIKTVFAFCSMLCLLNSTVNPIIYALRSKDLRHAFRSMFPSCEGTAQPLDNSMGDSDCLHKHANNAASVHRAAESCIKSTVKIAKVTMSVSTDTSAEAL
T2 sequence (P34972 whole entry): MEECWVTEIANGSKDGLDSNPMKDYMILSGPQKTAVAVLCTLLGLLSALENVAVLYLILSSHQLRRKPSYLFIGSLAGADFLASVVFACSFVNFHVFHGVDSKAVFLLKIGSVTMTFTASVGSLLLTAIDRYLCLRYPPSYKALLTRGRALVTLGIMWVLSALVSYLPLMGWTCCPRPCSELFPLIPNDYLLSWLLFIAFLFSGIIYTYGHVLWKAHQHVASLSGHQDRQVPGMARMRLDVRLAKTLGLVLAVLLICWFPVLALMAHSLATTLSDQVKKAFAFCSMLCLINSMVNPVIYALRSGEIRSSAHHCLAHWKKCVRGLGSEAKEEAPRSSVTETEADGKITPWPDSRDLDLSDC

`CC(C)c1cc(CNC(=O)c2cc(-c3ccc(Cl)cc3)c(OCC(F)(F)F)cn2)no1` [Example 27, 4-(4-chlorophenyl)-N-((5-isopropylisoxazol-3-yl)methyl)-5-(2,2,2-trifluoroethoxy)picolinamide]: the EC50 in experiment [1] was 970 nM. The inhibition at 10 µM is 40% in experiment [2] (setting [4]) and 24% in experiment [3].

As to `COc1cc(CNC(=O)c2cc(-c3ccc(Cl)cc3)c(OCC(F)(F)F)nn2)on1` [Example 23, 5-(4-chlorophenyl)-N-((3-methoxyisoxazol-5-yl)methyl)-6-(2,2,2-trifluoroethoxy)pyridazine-3-carboxamide], in experiment [1], the EC50 turned out to be 930 nM. The figures for the inhibition at 10 µM in experiment [2] (setting [4]) and in experiment [3] were 18% and 7%, respectively.

For `O=C(NCc1nc(C(F)(F)F)no1)c1cc(-c2ccc(Cl)cc2)c(OCC2CC2)cn1` [Example 18, 4-(4-chlorophenyl)-5-(cyclopropylmethoxy)-N-((3-(trifluoromethyl)-1,2,4-oxadiazol-5-yl)methyl)picolinamide], in experiment [1], the EC50 was determined as 6910 nM. Also, the inhibition at 10 µM worked out at 28% in experiment [2] (setting [4]) and 24% in experiment [3].

`Cc1cc(-c2cc(C(=O)NCc3csc(C4CC4)n3)cnc2OCC(F)(F)F)ccc1Cl` [Example 71, 5-(4-chloro-3-methylphenyl)-N-((2-cyclopropylthiazol-4-yl)methyl)-6-(2,2,2-trifluoroethoxy)nicotinamide]: the EC50 in experiment [1] amounted to 4290 nM. The inhibition at 10 µM in experiment [2] (setting [4]) is 2%; in experiment [3], -7%.

With `CC(C)c1cc(CNC(=O)c2ccc(OCC(F)(F)F)c(-c3ccc(Cl)cc3)n2)on1` [Example 64, 6-(4-chloro-phenyl)-5-(2,2,2-trifluoro-ethoxy)-pyridine-2-carboxylic acid (3-isopropyl-isoxazol-5-ylmethyl)-amide], the half-maximal effective concentration (EC50) in experiment [1] was determined as 860 nM. Also, the inhibition at 10 µM in experiment [2] (setting [4]) was found to be 33%; in experiment [3], 7%.

For `CCCc1nc(CNC(=O)c2cnc(OCC3CC3)c(-c3ccc(Cl)cc3)c2)cs1` [Example 11, 5-(4-chloro-phenyl)-6-cyclopropylmethoxy-N-(2-propyl-thiazol-4-ylmethyl)-nicotinamide], the EC50 in experiment [1] worked out at 1500 nM. Besides, the values for the inhibition at 10 µM in experiment [2] and in experiment [3] were 25% and 12%, respectively.

`CCCc1nc(CNC(=O)c2cnc(OCC(F)(F)F)c(-c3ccc(Cl)cc3)c2)cs1` [Example 9, 5-(4-chloro-phenyl)-N-(2-propyl-thiazol-4-ylmethyl)-6-(2,2,2-trifluoro-ethoxy)-nicotinamide]: the EC50 in experiment [1] came out at 900 nM. For the same molecule, the inhibition at 10 µM in experiment [2] (setting [4]) is 18%; in experiment [3], 1%.

Regarding `O=C(NCc1cc(C2CC2)on1)c1cc(-c2ccc(Cl)cc2)c(OCC(F)(F)F)cn1` [Example 28, 4-(4-chlorophenyl)-N-((5-cyclopropylisoxazol-3-yl)methyl)-5-(2,2,2-trifluoroethoxy)picolinamide], the EC50 in experiment [1] worked out at 870 nM. The inhibition at 10 µM in experiment [2] (setting [4]) turned out to be 42%; in experiment [3], 29%.

Consider `COc1cc(CNC(=O)c2cnc(O[C@@H](C)C(F)(F)F)c(-c3ccc(Cl)cc3)c2)on1` [Example 34, (S)-5-(4-chlorophenyl)-N-((3-methoxyisoxazol-5-yl)methyl)-6-(1,1,1-trifluoropropan-2-yloxy)nicotinamide], for which the EC50 in experiment [1] is 770 nM. The inhibition at 10 µM stood at 33% in experiment [2] (setting [4]) and 14% in experiment [3].

`O=C(NCc1cc(C(F)(F)F)on1)c1cc(-c2ccc(Cl)cc2)c(OCC(F)(F)F)nn1` [Example 67, 5-(4-chloro-phenyl)-6-(2,2,2-trifluoro-ethoxy)-pyridazine-3-carboxylic acid (5-trifluoromethyl-isoxazol-3-ylmethyl)-amide]: the concentration giving a half-maximal response (EC50) in experiment [1] amounted to 780 nM. Further, the inhibition at 10 µM in experiment [2] (setting [4]) turned out to be 25%; in experiment [3], 3%.

In the case of `O=C(NCc1nc(C(F)(F)F)no1)c1cnc(OCC(F)(F)F)c(-c2ccc(F)c(F)c2)c1` [Example 89, 5-(3,4-difluorophenyl)-6-(2,2,2-trifluoroethoxy)-N-((3-(trifluoromethyl)-1,2,4-oxadiazol-5-yl)methyl)nicotinamide], the 50% effective concentration (EC50) in experiment [1] was found to be 1960 nM. In addition, the inhibition at 10 µM in experiment [2] (setting [4]) was found to be 28%; in experiment [3], 4%.

`COc1cc(CNC(=O)c2cc(-c3ccc(Cl)cc3)c(OCC(F)(F)F)cn2)on1` [Example 1, 4-(4-chloro-phenyl)-5-(2,2,2-trifluoro-ethoxy)-pyridine-2-carboxylic acid (3-methoxy-isoxazol-5-ylmethyl)-amide]: the EC50 in experiment [1] was 2010 nM. In addition, the figures for the inhibition at 10 µM in experiment [2] (setting [4]) and in experiment [3] were 32% and 28%, respectively.

`Cc1cc(-c2cc(C(=O)NCc3nc(C(F)(F)F)no3)cnc2OC2CCC2)ccc1Cl` [Example 94, 5-(4-chloro-3-methylphenyl)-6-cyclobutoxy-N-((3-(trifluoromethyl)-1,2,4-oxadiazol-5-yl)methyl)nicotinamide]: the EC50 in experiment [1] worked out at 310 nM. The inhibition at 10 µM in experiment [2] (setting [4]) is 19%; in experiment [3], 2%.

For the molecule `O=C(NCc1nc(C(F)(F)F)no1)c1cnc(OC2CCC2)c(-c2ccc(F)c(F)c2)c1` [Example 91, 6-cyclobutoxy-5-(3,4-difluorophenyl)-N-((3-(trifluoromethyl)-1,2,4-oxadiazol-5-yl)methyl)nicotinamide], the EC50 in experiment [1] was determined as 620 nM. Moreover, the inhibition at 10 µM came out at 23% in experiment [2] (setting [4]) and 12% in experiment [3].

`COc1cc(CNC(=O)c2ncc(OCC(F)(F)F)c(-c3ccc(Cl)c(Cl)c3)n2)on1` [Example 25, 4-(3,4-dichlorophenyl)-N-((3-methoxyisoxazol-5-yl)methyl)-5-(2,2,2-trifluoroethoxy)pyrimidine-2-carboxamide]: in experiment [1], the EC50 was determined as 1470 nM. The inhibition at 10 µM in experiment [2] (setting [4]) amounted to 11%; in experiment [3] it was 17%.

`O=C(NCc1cc(C(F)(F)F)no1)c1ncc(OCC(F)(F)F)c(-c2ccc(Cl)cc2)n1` [Example 61, 4-(4-chloro-phenyl)-5-(2,2,2-trifluoro-ethoxy)-pyrimidine-2-carboxylic acid (3-trifluoromethyl-isoxazol-5-ylmethyl)-amide]: the EC50 in experiment [1] came to 820 nM. Further, the inhibition at 10 µM amounted to 32% in experiment [2] (setting [4]) and 17% in experiment [3].

Regarding `CC(C)c1cc(CNC(=O)c2cc(-c3ccc(Cl)cc3)c(OCC(F)(F)F)nn2)no1` [Example 42, 5-(4-chloro-phenyl)-6-(2,2,2-trifluoro-ethoxy)-pyridazine-3-carboxylic acid (5-isopropyl-isoxazol-3-ylmethyl)-amide], the EC50 in experiment [1] worked out at 800 nM. The inhibition at 10 µM worked out at 34% in experiment [2] (setting [4]) and 13% in experiment [3].

Regarding `O=C(NCc1nc(C2CC2)no1)c1cc(-c2ccc(Cl)cc2)c(OCC(F)(F)F)nn1` [Example 48, 5-(4-chloro-phenyl)-6-(2,2,2-trifluoro-ethoxy)-pyridazine-3-carboxylic acid (3-cyclopropyl-[1,2,4]oxadiazol-5-ylmethyl)-amide], the EC50 in experiment [1] stood at 730 nM. Besides, the values for the inhibition at 10 µM in experiment [2] (setting [4]) and in experiment [3] were 35% and 19%, respectively.

Take `CC(C)c1nc(CNC(=O)c2cnc(OCC(F)(F)F)c(-c3ccc(Cl)cc3)c2)cs1` [Example 8, 5-(4-chloro-phenyl)-N-(2-isopropyl-thiazol-4-ylmethyl)-6-(2,2,2-trifluoro-ethoxy)-nicotinamide]: the EC50 in experiment [1] came to 900 nM. For the same molecule, the inhibition at 10 µM was determined as 24% in experiment [2] and 10% in experiment [3].
